Experimental data taken from patent US7858796B2, “Chemical compounds” (Glaxo Group Limited, priority 2004, dated 2010).

The compounds below were run on human monocyte stimulated cytokine production (TNF-α) (assay: Monocyte Assay (LPS-stimulated TNF-α production)). Details: human CD14+ monocytes, 200 ng/mL LPS, 24 hrs, TNF-α by ELISA.
Format: cell-based
Description: Effect of IKK-β inhibition on human monocyte stimulated cytokine production was assessed as follows: Monocytes were isolated from heparinized whole blood by Ficoll gradient, followed by purification of CD14+ cells using MACS magnetic cell separation beads. Isolated monocytes were then adhered to 96-well culture plates at 1×10^6 cells/mL in RPMI 1640 10% FBS (JRH Biosciences, Lenexa Kans.) for 2 h. to further enrich the monocyte population. The media was then removed, cells washed once with RPMI 1640, and 0.125 mL RPMI 1640 10% FBS was added to the wells. Test compounds are added to the wells 30 minutes prior to stimulation with a final vehicle concentration of 0.1% DMSO. Monocytes were activated by the addition of 200 ng/mL endotoxin (LPS; E. coli serotype 026:B6) (Sigma, St. Louis, Mo.) and incubated for 24 hrs at 37 C. Cell-free supernates were analyzed by ELISA for TNF-α using Pharmingen matched pair Abs. Viability of the cells was determined by10% trypan blue exclusion.

Row | Structure (SMILES) | IC50
1 | NCCS(=O)(=O)N1CCC(c2c[nH]c3c(C(N)=O)cc(-c4ccccc4)cc23)CC1 [Example 1, 3-{1-[(2-aminoethyl)sulfonyl]-4-piperidinyl}-5-phenyl-1H-indole-7-carboxamide] | < 10 µM
2 | CN(C)CCCS(=O)(=O)N1CCC(c2c[nH]c3c(C(N)=O)cc(-c4ccccc4)cc23)CC1 [Example 3, 3-(1-{[3-(dimethylamino)propyl]sulfonyl}-4-piperidinyl)-5-phenyl-1H-indole-7-carboxamide] | < 10 µM
3 | CN1CCN(CCCS(=O)(=O)N2CCC(c3c[nH]c4c(C(N)=O)cc(-c5ccccc5)cc34)CC2)CC1 [Example 4, 3-(1-{[3-(4-methyl-1-piperazinyl)propyl]sulfonyl}-4-piperidinyl)-5-phenyl-1H-indole-7-carboxamide] | < 10 µM
4 | NC(=O)c1cc(-c2ccccc2)cc2c(C3CCN(S(=O)(=O)CCCN4CCCCC4)CC3)c[nH]c12 [Example 5, 5-phenyl-3-(1-{[3-(1-piperidinyl)propyl]sulfonyl}-4-piperidinyl)-1H-indole-7-carboxamide] | < 10 µM
5 | NC(=O)c1cc(-c2ccccc2)cc2c(C3CCN(S(=O)(=O)CCCN4CCOCC4)CC3)c[nH]c12 [Example 6, 3-(1-{[3-(4-morpholinyl)propyl]sulfonyl}-4-piperidinyl)-5-phenyl-1H-indole-7-carboxamide] | < 10 µM
6 | NC(=O)c1cc(-c2ccccc2)cc2c(C3CCN(S(=O)(=O)CCCN4CCCC4)CC3)c[nH]c12 [Example 7, 5-phenyl-3-(1-{[3-(1-pyrrolidinyl)propyl]sulfonyl}-4-piperidinyl)-1H-indole-7-carboxamide] | < 10 µM
7 | CN(C)CCCS(=O)(=O)N1CCC(c2c[nH]c3c(C(N)=O)cc(-c4cccs4)cc23)CC1 [Example 10, 3-(1-{[3-(dimethylamino)propyl]sulfonyl}-4-piperidinyl)-5-(2-thienyl)-1 indole-7-carboxamide] | < 10 µM
8 | NC(=O)c1cc(-c2cccs2)cc2c(C3CCN(S(=O)(=O)CCCN4CCCC4)CC3)c[nH]c12 [Example 11, 3-(1-{[3-(1-pyrrolidinyl)propyl]sulfonyl}-4-piperidinyl)-5-(2-thienyl)-1 indole-7-carboxamide] | < 10 µM
9 | NC(=O)c1cc(-c2ccsc2)cc2c(C3CCN(S(=O)(=O)CCNC4CCCC4)CC3)c[nH]c12 [Example 18, 3-(1-{[2-(cyclopentylamino)ethyl]sulfonyl}-4-piperidinyl)-5-(3-thienyl)-11 indole-7-carboxamide] | < 10 µM
10 | NC(=O)c1cc(-c2ccsc2)cc2c(C3CCN(S(=O)(=O)CCNC4CCC(O)CC4)CC3)c[nH]c12 (stereo not drawn) [Example 19, 3-[1-({2-[(4-hydroxycyclohexyl)amino]ethyl}sulfonyl)-4-piperidinyl]-5-(3-thienyl)-1H-indole-7-carboxamide] | < 10 µM
11 | NC(=O)c1cc(-c2ccccc2)cc2c(C3CCN(S(=O)(=O)CCO)CC3)c[nH]c12 [Example 20, 3-{1-[(2-hydroxyethyl)sulfonyl]-4-piperidinyl}-5-phenyl-1H-indole-7-carboxamide] | < 10 µM
12 | NC(=O)c1cc(-c2ccc(Cl)s2)cc2c(C3CCN(S(=O)(=O)CCCN4CCCC4)CC3)c[nH]c12 [Example 21, 5-(5-chloro-2-thienyl)-3-(1-{[3-(1-pyrrolidinyl)propyl]sulfonyl}-4-piperidinyl)-1H-indole-7-carboxamide] | < 10 µM
13 | C[C@@H]1CC[C@@H](C)N1CCCS(=O)(=O)N1CCC(c2c[nH]c3c(C(N)=O)cc(-c4ccccc4)cc23)CC1 [Example 69, 3-[1-({3-[(2R,5R)-2,5-dimethyl-1-pyrrolidinyl]propyl}sulfonyl)-4-piperidinyl]-5-phenyl-1H-indole-7-carboxamide] | < 10 µM
14 | CN1CCN(CCCS(=O)(=O)N2CCC(c3c[nH]c4c(C(N)=O)cc(-c5ccsc5)cc34)CC2)CC1 [Example 72, 3-(1-{[3-(4-methyl-1-piperazinyl)propyl]sulfonyl}-4-piperidinyl)-5-(3-thienyl)-1H-indole-7-carboxamide] | < 10 µM
15 | NC(=O)c1cc(-c2cccs2)cc2c(C3CCN(S(=O)(=O)CCCN4CCOCC4)CC3)c[nH]c12 [Example 73, 3-(1-{[3-(4-morpholinyl)propyl]sulfonyl}-4-piperidinyl)-5-(2-thienyl)-1H-indole-7-carboxamide] | < 10 µM

Second part, the compound after the results:

Row | IC50 | Structure (SMILES)
16 | < 10 µM | CN(C)CCS(=O)(=O)N1CCC(c2c[nH]c3c(C(N)=O)cc(-c4ccccc4)cc23)CC1 [Example 2, 3-(1-{[2-(dimethylamino)ethyl]sulfonyl}-4-piperidinyl)-5-phenyl-1H-indole-7-carboxamide]
17 | < 10 µM | NC(=O)c1cc(-c2ccsc2)cc2c(C3CCN(S(=O)(=O)CCCN4CCCC4)CC3)c[nH]c12 [Example 8, 3-(1-{[3-(1-pyrrolidinyl)propyl]sulfonyl}-4-piperidinyl)-5-(3-thienyl)-1H-indole-7-carboxamide]
18 | < 10 µM | CN(C)CCCS(=O)(=O)N1CCC(c2c[nH]c3c(C(N)=O)cc(-c4ccsc4)cc23)CC1 [Example 9, 3-(1-{[3-(dimethylamino)propyl]sulfonyl}-4-piperidinyl)-5-(3-thienyl)-1H-indole-7-carboxamide]
19 | < 10 µM | CC1CCCN1CCCS(=O)(=O)N1CCC(c2c[nH]c3c(C(N)=O)cc(-c4cccs4)cc23)CC1 (stereo not drawn) [Example 12, 3-(1-{[3-(2-methyl-1-pyrrolidinyl)propyl]sulfonyl}-4-piperidinyl)-5-(2-thienyl)-11 indole-7-carboxamide]
20 | < 10 µM | NC(=O)c1cc(-c2cccs2)cc2c(C3CCN(S(=O)(=O)CCCNC4CCCC4)CC3)c[nH]c12 [Example 13, 3-(1-{[3-(cyclopentylamino)propyl]sulfonyl}-4-piperidinyl)-5-(2-thienyl)-1H-indole-7-carboxamide]
21 | < 10 µM | NC(=O)c1cc(-c2cccs2)cc2c(C3CCN(S(=O)(=O)CCCN4CCC(O)CC4)CC3)c[nH]c12 [Example 14, 3-(1-{[3-(4-hydroxy-1-piperidinyl)propyl]sulfonyl}-4-piperidinyl)-5-(2-thienyl)-1-indole-7-carboxamide]
22 | < 10 µM | NC(=O)c1cc(-c2cccs2)cc2c(C3CCN(S(=O)(=O)CCNC4CCCC4)CC3)c[nH]c12 [Example 15, 3-(1-{[2-(cyclopentylamino)ethyl]sulfonyl}-4-piperidinyl)-5-(2-thienyl)-1H-indole-7-carboxamide]
23 | < 10 µM | NC(=O)c1cc(-c2ccsc2)cc2c(C3CCN(S(=O)(=O)CCN4CCCC4)CC3)c[nH]c12 [Example 16, 3-(1-{[2-(1-pyrrolidinyl)ethyl]sulfonyl}-4-piperidinyl)-5-(3-thienyl)-1H-indole-7-carboxamide]
24 | < 10 µM | CN(C)CCS(=O)(=O)N1CCC(c2c[nH]c3c(C(N)=O)cc(-c4ccsc4)cc23)CC1 [Example 17, 3-(1-{[2-(dimethylamino)ethyl]sulfonyl}-4-piperidinyl)-5-(3-thienyl)-1H-indole-7-carboxamide]
25 | < 10 µM | CNCCS(=O)(=O)N1CCC(c2c[nH]c3c(C(N)=O)cc(-c4ccccc4)cc23)CC1 [Example 22, 3-(1-{[2-(methylamino)ethyl]sulfonyl}-4-piperidinyl)-5-phenyl-1H-indole-7-carboxamide]
26 | < 10 µM | NC(=O)c1cc(-c2ccc(CO)s2)cc2c(C3CCN(S(=O)(=O)CCCN4CCCC4)CC3)c[nH]c12 [Example 63, 5-[5-(hydroxymethyl)-2-thienyl]-3-(1-{[3-(1-pyrrolidinyl)propyl]sulfonyl}-4-piperidinyl)-1H-indole-7-carboxamide]
27 | < 10 µM | NC(=O)c1cc(-c2ccc(CN3CCCC3)s2)cc2c(C3CCN(S(=O)(=O)CCCN4CCCC4)CC3)c[nH]c12 [Example 64, 5-[5-(1-pyrrolidinylmethyl)-2-thienyl]-3-(1-{[3-(1-pyrrolidinyl)propyl]sulfonyl}-4-piperidinyl)-1H-indole-7-carboxamide]
28 | < 10 µM | CNCc1ccc(-c2cc(C(N)=O)c3[nH]cc(C4CCN(S(=O)(=O)CCCN5CCOCC5)CC4)c3c2)s1 [Example 65, 5-{5-[(methylamino)methyl]-2-thienyl}-3-(1-{[3-(4-morpholinyl)propyl]sulfonyl}-4-piperidinyl)-1H-indole-7-carboxamide]
29 | < 10 µM | CCNCc1ccc(-c2cc(C(N)=O)c3[nH]cc(C4CCN(S(=O)(=O)CCCN5CCOCC5)CC4)c3c2)s1 [Example 66, 5-{5-[(ethylamino)methyl]-2-thienyl}-3-(1-{[3-(4-morpholinyl)propyl]sulfonyl}-4-piperidinyl)-1H-indole-7-carboxamide]
30 | < 10 µM | CC(C)N(CCCS(=O)(=O)N1CCC(c2c[nH]c3c(C(N)=O)cc(-c4ccccc4)cc23)CC1)C(C)C [Example 67, 3-[1-({3-[bis(1-methylethyl)amino]propyl}sulfonyl)-4-piperidinyl]-5-phenyl-1H-indole-7-carboxamide]
31 | < 10 µM | COCCS(=O)(=O)N1CCC(c2c[nH]c3c(C(N)=O)cc(-c4ccccc4)cc23)CC1 [Example 68, 3-(1-{[2-(methyloxy)ethyl]sulfonyl}-4-piperidinyl)-5-phenyl-1 indole-7-carboxamide]
32 | < 10 µM | CN1CCN(CCCS(=O)(=O)N2CCC(c3c[nH]c4c(C(N)=O)cc(-c5cccs5)cc34)CC2)CC1 [Example 70, 3-(1-{[3-(4-methyl-1-piperazinyl)propyl]sulfonyl}-4-piperidinyl)-5-(2-thienyl)-1H-indole-7-carboxamide]
33 | < 10 µM | NC(=O)c1cc(-c2ccsc2)cc2c(C3CCN(S(=O)(=O)CCCN4CCC(O)CC4)CC3)c[nH]c12 [Example 71, 3-(1-{[3-(4-hydroxy-1-piperidinyl)propyl]sulfonyl}-4-piperidinyl)-5-(3-thienyl)-1H-indole-7-carboxamide]
